Assay results from patent US11446287B2, “Compounds and methods for EP300 or CBP modulation and indications therefor” (Opna Immuno-Oncology SA, priority 2019, dated 2022).

target: T1, Recombinant human CBP containing the bromodomain (CBP-BD (1043-1159)) (Homo sapiens, UniProt Q92793); assay: CBP Alphascreen binding assay; conditions: read-out: CREBBP (CBP) IC50
T1 construct: Recombinant human CBP bromodomain (CBP-BD (1043-1159)); made in house; host or cells: E. coli BL21-CodonPlus (DE3), modified pET vector
T1 sequence (Q92793 1081-1197): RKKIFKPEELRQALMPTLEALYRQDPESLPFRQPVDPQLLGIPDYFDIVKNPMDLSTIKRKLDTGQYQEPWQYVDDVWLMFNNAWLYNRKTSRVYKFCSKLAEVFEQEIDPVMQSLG
Summary of the method: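 Buffer: 50 mM HEPES pH 7.5, 50 mM NaCl, 0.01% BSA, 0.01% Triton X-100, 2 mM DTT. The signal was normalised to plate controls and fitted with a four-parameter curve to give IC50.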

Row | Compound | IC50
1 | Cc1noc(C)c1-c1cnc2c(c1)c(-c1ccc(C(=O)O)cc1)cn2C(C)c1ccc(F)cn1 (stereo not shown) [P-0014, 4-(5-(3,5-dimethylisoxazol-4-yl)-1-(1-(5-fluoropyridin-2-yl)ethyl)-1H-pyrrolo[2,3-b]pyridin-3-yl)benzoic acid] | 0.1 to 1000 nM
2 | Cc1ccccc1-n1cc(-c2ccc(C(=O)O)cc2OC(F)(F)F)c2cc(-c3c(C)noc3C)cnc21 [P-0231, 4-(5-(3,5-dimethylisoxazol-4-yl)-1-(o-tolyl)-1H-pyrrolo[2,3-b]pyridin-3-yl)-3-(trifluoromethoxy)benzoic acid] | 0.1 to 1000 nM
3 | CCOc1cc(C(=O)O)cc(OCC)c1-n1cc(-c2ccc(OC)cc2F)c2ncc(-c3c(C)noc3C)cc21 [P-0194, 4-(6-(3,5-dimethylisoxazol-4-yl)-3-(2-fluoro-4-methoxyphenyl)-1H-pyrrolo[3,2-b]pyridin-1-yl)-3,5-diethoxybenzoic acid] | 0.1 to 1000 nM
4 | Cc1noc(C)c1-c1cnc2c(c1)c(-c1ccc(C(=O)O)cc1OC(F)(F)F)cn2-c1cc(F)ccc1F [P-0233, 4-(1-(2,5-difluorophenyl)-5-(3,5-dimethylisoxazol-4-yl)-1H-pyrrolo[2,3-b]pyridin-3-yl)-3-(trifluoromethoxy)benzoic acid] | 0.1 to 1000 nM
5 | Cc1noc(C)c1-c1cnc2c(c1)c(-c1ccc(C(=O)O)cc1OC(F)(F)F)cn2-c1ncccc1C#N [P-0215, 4-(1-(3-cyanopyridin-2-yl)-5-(3,5-dimethylisoxazol-4-yl)-1H-pyrrolo[2,3-b]pyridin-3-yl)-3-(trifluoromethoxy)benzoic acid] | 0.1 to 1000 nM
6 | Cc1noc(C)c1-c1cnc2c(c1)c(-c1ccc(C(=O)O)cc1OC(F)(F)F)cn2-c1ccccc1 [P-0188, 4-(5-(3,5-dimethylisoxazol-4-yl)-1-phenyl-1H-pyrrolo[2,3-b]pyridin-3-yl)-3-(trifluoromethoxy)benzoic acid] | 0.1 to 1000 nM
7 | Cc1noc(C)c1-c1cnc2c(c1)c(-c1ccc(C(=O)O)cc1OC1CCC1)cn2[C@@H](C)c1ccccn1 [P-0179, (S)-3-cyclobutoxy-4-(5-(3,5-dimethylisoxazol-4-yl)-1-(1-(pyridin-2-yl)ethyl)-1H-pyrrolo[2,3-b]pyridin-3-yl)benzoic acid] | 0.1 to 1000 nM
8 | Cc1noc(C)c1-c1cnc2c(-c3ccc(C(=O)O)c(F)c3)c(C(F)(F)F)n([C@@H](C)c3ccccn3)c2c1 [P-0242, (S)-4-(6-(3,5-dimethylisoxazol-4-yl)-1-(1-(pyridin-2-yl)ethyl)-2-(trifluoromethyl)-1H-pyrrolo[3,2-b]pyridin-3-yl)-2-fluorobenzoic acid] | 1000 to 8000 nM
9 | Cc1noc(C)c1-c1cnc2c(c1)c(-c1ccc(C(=O)O)cc1OC(F)(F)F)cn2S(=O)(=O)C1CC1 [P-0202, 4-(1-(cyclopropylsulfonyl)-5-(3,5-dimethylisoxazol-4-yl)-1H-pyrrolo[2,3-b]pyridin-3-yl)-3-(trifluoromethoxy)benzoic acid] | 0.1 to 1000 nM
10 | CCOc1cc(C(=O)O)cc(OCC)c1-n1cc(-c2ccc(F)cc2)c2ncc(-c3c(C)noc3C)cc21 [P-0184, 4-(6-(3,5-dimethylisoxazol-4-yl)-3-(4-fluorophenyl)-1H-pyrrolo[3,2-b]pyridin-1-yl)-3,5-diethoxybenzoic acid] | 0.1 to 1000 nM
11 | CCOc1cc(C(=O)O)cc(OCC)c1-n1cc(C2=CCC(F)(F)CC2)c2ncc(-c3c(C)noc3C)cc21 [P-0208, 4-(3-(4,4-difluorocyclohex-1-en-1-yl)-6-(3,5-dimethylisoxazol-4-yl)-1H-pyrrolo[3,2-b]pyridin-1-yl)-3,5-diethoxybenzoic acid] | 0.1 to 1000 nM
12 | Cc1noc(C)c1-c1cnc2c(c1)c(-c1ccc(C(=O)O)cc1OC(F)(F)F)cn2-c1ccccc1F [P-0223, 4-(5-(3,5-dimethylisoxazol-4-yl)-1-(2-fluorophenyl)-1H-pyrrolo[2,3-b]pyridin-3-yl)-3-(trifluoromethoxy)benzoic acid] | 0.1 to 1000 nM
13 | CCOc1ccc(C(=O)O)cc1-n1cc(-c2ccccc2)c2ncc(-c3c(C)noc3C)cc21 [P-0225, 3-(6-(3,5-dimethylisoxazol-4-yl)-3-phenyl-1H-pyrrolo[3,2-b]pyridin-1-yl)-4-ethoxybenzoic acid] | 0.1 to 1000 nM
